Data from ChEMBL document CHEMBL5344412, “Dual degradation mechanism of GPX4 degrader in induction of ferroptosis exerting anti-resistant tumor effect” (Eur J Med Chem, 2023).
Blank lines part the entries; values can stand above or below the molecule they belong to. Activity calls are given as the source filed them. The calls are words filed in the database; no cut-off is given here.

Legend:
[1] = target: T1, Phospholipid hydroperoxide glutathione peroxidase GPX4 (Homo sapiens, UniProt P36969); test: (§1) Induction of GPX4 degradation in human HT-1080 cells measured for 6 hrs by Western blot analysis; assay type: cell-based
T1 sequence (P36969 whole entry): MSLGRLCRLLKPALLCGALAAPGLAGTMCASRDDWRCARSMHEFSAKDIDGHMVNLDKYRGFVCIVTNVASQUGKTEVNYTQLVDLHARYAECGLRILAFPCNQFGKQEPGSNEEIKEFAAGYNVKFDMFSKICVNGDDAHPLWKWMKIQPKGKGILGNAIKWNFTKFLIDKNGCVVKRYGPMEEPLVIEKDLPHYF

[2] = target: T2, Phospholipid hydroperoxide glutathione peroxidase GPX4 (Homo sapiens) (UniProt P36969); test: as §1; assay type: cell-based; details: dose 0.3-1000 nM
T2 sequence (whole entry): T1 sequence (P36969 whole entry)

[3] = target: T2, Phospholipid hydroperoxide glutathione peroxidase GPX4 (Homo sapiens); test: Induction of GPX4 degradation in human Calu-1 cells at 0.3 uM measured for 4 hrs by Western blot analysis; assay type: cell-based
NCI-H1650 = test: Antiproliferative activity against human NCI-H1650 cells assessed as inhibition of cell growth incubated for 24 hrs by MTT assay; assay type: functional, cell-based; details: NCI-H1650, 24 h
HT-1080 [4] = test: Induction of ferroptosis in human HT-1080 cells assessed as increase in cell survival at 0.1 uM incubated for 24 hrs in presence of 5 uM of liproxstatin-1 by MTT assay; assay type: functional
HT-1080 [5] = test: Induction of ferroptosis in human HT-1080 cells assessed as increase in cell survival at 0.1 uM incubated for 24 hrs in presence of 0.020 uM of liproxstatin-1 by MTT assay; assay type: functional
HT-1080 [6] = test: Induction of ferroptosis in human HT-1080 cells assessed as increase in cell survival at 0.1 uM incubated for 24 hrs in presence of 0.061 uM of liproxstatin-1 by MTT assay; assay type: functional
[7] = target: T2, Phospholipid hydroperoxide glutathione peroxidase GPX4 (Homo sapiens); test: Induction of GPX4 degradation in human HT-1080 cells at 0.1 uM pretreated for 2 hrs followed by V5 addition and measured after 6 hrs by Western blot analysis; assay type: cell-based; details: time 8.0 hrs
[8] = target: T1, Phospholipid hydroperoxide glutathione peroxidase GPX4; test: (§2) Induction of GPX4 degradation in human Calu-1 cells measured for 24 hrs by Western blot analysis; assay type: cell-based
[9] = target: T2, Phospholipid hydroperoxide glutathione peroxidase GPX4 (Homo sapiens); test: as §2; assay type: cell-based; details: dose 0.1-10000 nM
[10] = target: T1, Phospholipid hydroperoxide glutathione peroxidase GPX4; test: (§3) Induction of GPX4 degradation in human NCI-H1650 cells incubated for 24 hrs by Western blot analysis; assay type: cell-based
[11] = target: T2, Phospholipid hydroperoxide glutathione peroxidase GPX4 (Homo sapiens); test: as §3; assay type: cell-based; details: dose 10-1000 nM
[12] = target: T2, Phospholipid hydroperoxide glutathione peroxidase GPX4 (Homo sapiens); test: Induction of GPX4 degradation in human HT-1080 cells at 0.1 uM incubated for 24 hrs in presence of ZVF by Western blot analysis; assay type: cell-based
HT-1080 [13] = test: Induction of ferroptosis in human HT-1080 cells assessed as increase in cell survival at 0.1 uM incubated for 24 hrs in presence of 1.670 uM of liproxstatin-1 by MTT assay; assay type: functional
[14] = target: T2, Phospholipid hydroperoxide glutathione peroxidase GPX4 (Homo sapiens); test: Induction of GPX4 degradation in human HT-1080 cells at 0.1 uM incubated for 24 hrs in presence of Baf-A1 by Western blot analysis; assay type: cell-based
HT-1080 [15] = test: Induction of ROS production in human HT-1080 cells assessed as increase in ROS positive cells at 0.1 uM incubated for 4 hrs by C11-BODIPY581/891 staining based flow cytometry analysis; assay type: functional, cell-based
[16] = target: T2, Phospholipid hydroperoxide glutathione peroxidase GPX4 (Homo sapiens); test: Induction of GPX4 degradation in human HT-1080 cells at 0.1 uM incubated for 6 hrs in presence of PYR41 by Western blot analysis; assay type: cell-based
[17] = target: T1, Phospholipid hydroperoxide glutathione peroxidase GPX4; test: (§4) Induction of GPX4 degradation in human Gefitinib-resistant H1650 cells incubated for 24 hrs by Western blot analysis; assay type: cell-based, Gefitinib-resistant H1650 cell
[18] = target: T2, Phospholipid hydroperoxide glutathione peroxidase GPX4 (Homo sapiens); test: as §4; assay type: cell-based; details: Gefitinib-resistant H1650 cell, dose 10-1000 nM
[19] = target: T2, Phospholipid hydroperoxide glutathione peroxidase GPX4 (Homo sapiens); test: Induction of GPX4 degradation in human HT-1080 cells at 0.1 uM incubated for 24 hrs in presence of 20 uM of liproxstatin-1 by Western blot analysis; assay type: cell-based
[20] = target: T2, Phospholipid hydroperoxide glutathione peroxidase GPX4 (Homo sapiens); test: Induction of GPX4 degradation in human HT-1080 cells at 0.1 uM measured for 1 hr by Western blot analysis; assay type: cell-based
HT-1080 [21] = test: Induction of ferroptosis in human HT-1080 cells assessed as increase in cell survival at 0.1 uM incubated for 24 hrs in presence of 0.556 uM of liproxstatin-1 by MTT assay; assay type: functional
[22] = Toxicity in Balb/c nude mouse xenografted with human HT-1080 cells assessed as change in body weight at 200 mg/kg, sc measured for 16 days; assay type: organism-based; details: in vivo, 384 h, time 16 day
[23] = target: T2, Phospholipid hydroperoxide glutathione peroxidase GPX4 (Homo sapiens); test: Induction of GPX4 degradation in human Calu-1 cells at 0.3 uM measured for 8 hrs by Western blot analysis; assay type: cell-based
[24] = target: T2, Phospholipid hydroperoxide glutathione peroxidase GPX4 (Homo sapiens); test: Induction of GPX4 degradation in human HT-1080 cells at 0.1 uM by Western blot analysis; assay type: cell-based
[25] = target: T2, Phospholipid hydroperoxide glutathione peroxidase GPX4 (Homo sapiens); test: Induction of GPX4 degradation in human HT-1080 cells at 0.1 uM measured for 6 hrs by Western blot analysis; assay type: cell-based
[26] = Antiproliferative activity against human Gefitinib-resistant H1650 cell assessed as inhibition of cell growth incubated for 24 hrs by MTT assay; assay type: functional, cell-based
HT-1080 [27] = test: Antiproliferative activity against human HT-1080 cells assessed as inhibition of cell growth incubated for 24 hrs by MTT assay; assay type: functional, cell-based; details: HT-1080, 24 h
[28] = target: T2, Phospholipid hydroperoxide glutathione peroxidase GPX4 (Homo sapiens); test: Induction of GPX4 degradation in human HT-1080 cells at 0.1 uM incubated for 24 hrs in presence of Nec-1 by Western blot analysis; assay type: cell-based
HT-1080 [29] = test: Induction of ferroptosis in human HT-1080 cells assessed as increase in cell survival at 0.1 uM incubated for 24 hrs in presence of 0.006 uM of liproxstatin-1 by MTT assay; assay type: functional
Calu-1 = test: Antiproliferative activity against human Calu-1 cells assessed as inhibition of cell growth incubated for 24 hrs by MTT assay; assay type: functional, cell-based; details: Calu-1, 24 h
HT-1080 [30] = test: Induction of ferroptosis in human HT-1080 cells assessed as increase in cell survival at 0.1 uM incubated for 24 hrs in presence of 0.185 uM of liproxstatin-1 by MTT assay; assay type: functional
[31] = target: T2, Phospholipid hydroperoxide glutathione peroxidase GPX4 (Homo sapiens); test: Induction of GPX4 degradation in human NCI-H1650 cells at 0.3 uM incubated for 24 hrs by Western blot analysis; assay type: cell-based
[32] = target: T2, Phospholipid hydroperoxide glutathione peroxidase GPX4 (Homo sapiens); test: Induction of GPX4 degradation in human HT-1080 cells at 0.1 uM measured for 24 hrs by Western blot analysis; assay type: cell-based
HT-1080 [33] = test: Induction of ROS production in human HT-1080 cells assessed as increase in ROS positive cells at 0.1 uM preincubated with liproxstatin-1 for 2 hrs followed by compound addition and measured after for 7 hrs by C11-BODIPY581/891 staining based flow cytometry analysis; assay type: functional, cell-based
[34] = target: T2, Phospholipid hydroperoxide glutathione peroxidase GPX4 (Homo sapiens); test: Induction of GPX4 degradation in human HT-1080 cells at 100 nM incubated for 6 hrs relative to control; assay type: cell-based
[35] = target: T2, Phospholipid hydroperoxide glutathione peroxidase GPX4 (Homo sapiens); test: Induction of GPX4 degradation in human HT-1080 cells at 0.1 uM incubated for 6 hrs in presence of […] by Western blot analysis; assay type: cell-based

IC50 (NCI-H1650): 7750 nM
Activity [16]: inactive
Activity [19]: inactive
Activity [24]: Active
IC50 (HT-1080 [27]): 130 nM
IC50 (Calu-1): 50 nM
Activity [35]: inactive
SMILES: COC(=O)c1ccc([C@H]2c3[nH]c4ccccc4c3C[C@H](C(=O)OC)N2C(=O)CCl)cc1
IC50 [26]: 5520 nM

Activity [34]: 36%
SMILES: COC(=O)[C@H]1Cc2c([nH]c3ccccc23)[C@H](c2ccc(C(=O)N3CCN(CCCCCCCN[C@H](C(=O)N4C[C@H](O)C[C@H]4C(=O)N[C@@H](C)c4ccc(-c5scnc5C)cc4)C(C)(C)C)CC3)cc2)N1C(=O)CCl

Activity [34]: 39%
SMILES: COC(=O)[C@H]1Cc2c([nH]c3ccccc23)[C@H](c2ccc(C(=O)N3CCN(CCCCCCCCCN[C@H](C(=O)N4C[C@H](O)C[C@H]4C(=O)N[C@@H](C)c4ccc(-c5scnc5C)cc4)C(C)(C)C)CC3)cc2)N1C(=O)CCl

The remaining lines, values behind:

SMILES: COC(=O)[C@H]1Cc2c([nH]c3ccccc23)[C@H](c2ccc(C(=O)N3CCN(CCCCCCCCCCCCCN[C@H](C(=O)N4C[C@H](O)C[C@H]4C(=O)N[C@@H](C)c4ccc(-c5scnc5C)cc4)C(C)(C)C)CC3)cc2)N1C(=O)CCl
EC50 [1]: 23.3 nM
Activity [2]: Dose-Dependent Effect
Activity [3]: Active
IC50 (NCI-H1650): 2100 nM
Activity (HT-1080 [4]): 92.1%
Activity (HT-1080 [5]): 82.7%
Activity (HT-1080 [6]): 82.7%
Activity [7]: inactive
EC50 [8]: 136 nM
Activity [9]: Dose-Dependent Effect
EC50 [10]: 42.7 nM
Activity [11]: Dose-Dependent Effect
Activity [12]: inactive
Activity (HT-1080 [13]): 88.5%
Activity [14]: inactive
Activity (HT-1080 [15]): Active
Activity [16]: inactive
EC50 [17]: 25.6 nM
Activity [18]: Dose-Dependent Effect
Activity [19]: Active
Activity [20]: Active
Activity (HT-1080 [21]): 91.5%
Activity [22]: Non-Toxic
Activity [23]: 100%
Activity [24]: Active
Activity [25]: 100%
IC50 [26]: 1560 nM
IC50 (HT-1080 [27]): 58 nM
Activity [28]: inactive
Activity (HT-1080 [29]): 74.8%
IC50 (Calu-1): 25 nM
Activity (HT-1080 [30]): 92.5%
Activity [31]: 100%
Activity [32]: Active
Activity (HT-1080 [33]): Active
Activity [34]: 63%
Activity [35]: inactive

SMILES: COC(=O)[C@H]1Cc2c([nH]c3ccccc23)[C@H](c2ccc(C(=O)N3CCN(CCCCCCCCCCCCN[C@H](C(=O)N4C[C@H](O)C[C@H]4C(=O)N[C@@H](C)c4ccc(-c5scnc5C)cc4)C(C)(C)C)CC3)cc2)N1C(=O)CCl
Activity [34]: 60%

SMILES: Cc1onc(C(=O)N2CCN(C(c3ccc(Cl)cc3)c3ccc(Cl)cc3)CC2)c1[N+](=O)[O-]
IC50 (Calu-1): 630 nM

SMILES: COC(=O)[C@H]1Cc2c([nH]c3ccccc23)[C@H](c2ccc(C(=O)N3CCN(CCCCCCCCCCCN[C@H](C(=O)N4C[C@H](O)C[C@H]4C(=O)N[C@@H](C)c4ccc(-c5scnc5C)cc4)C(C)(C)C)CC3)cc2)N1C(=O)CCl
Activity [34]: 52%

SMILES: COC(=O)[C@H]1Cc2c([nH]c3ccccc23)[C@H](c2ccc(C(=O)N3CCN(CCCCCCCCCCCCCCN[C@H](C(=O)N4C[C@H](O)C[C@H]4C(=O)N[C@@H](C)c4ccc(-c5scnc5C)cc4)C(C)(C)C)CC3)cc2)N1C(=O)CCl
Activity [34]: 55%
